Where a name gives a salt, the structure may show the parent alone.
Tests used:
Format in all cases: biochemical
[1] = target: T1, JAK1 (Homo sapiens, UniProt P23458); assay: JAK1 inhibition (Table 4); settings: read-out: JAK1 Ki
T1 construct: made in house; host or cells: SF9 insect cells (baculovirus)

[2] = target: T2, JAK2 (Homo sapiens, UniProt O60674); assay: JAK2 inhibition (Table 4); settings: read-out: JAK2 Ki
T2 construct: made in house; host or cells: SF9 insect cells (baculovirus)

[3] = target: T3, JAK3 (Homo sapiens, UniProt P52333); assay: JAK3 inhibition (Table 4); settings: read-out: JAK3 Ki
T3 construct: made in house; host or cells: SF9 insect cells (baculovirus)
T3 sequence (P52333 783-1124): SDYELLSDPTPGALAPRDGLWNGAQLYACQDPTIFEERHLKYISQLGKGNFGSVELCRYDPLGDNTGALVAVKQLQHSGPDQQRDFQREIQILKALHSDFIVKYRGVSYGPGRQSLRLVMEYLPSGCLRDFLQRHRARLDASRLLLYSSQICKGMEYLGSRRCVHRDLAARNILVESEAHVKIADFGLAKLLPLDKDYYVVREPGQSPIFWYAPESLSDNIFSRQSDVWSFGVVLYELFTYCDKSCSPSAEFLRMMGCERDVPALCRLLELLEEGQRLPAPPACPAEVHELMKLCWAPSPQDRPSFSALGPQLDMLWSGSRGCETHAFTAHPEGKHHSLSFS

[4] = target: T4, TYK2 (Homo sapiens, UniProt P29597); assay: TYK2 inhibition (Table 4)
T4 construct: made in house; host or cells: SF9 insect cells (baculovirus)
T4 sequence (P29597 873-1187): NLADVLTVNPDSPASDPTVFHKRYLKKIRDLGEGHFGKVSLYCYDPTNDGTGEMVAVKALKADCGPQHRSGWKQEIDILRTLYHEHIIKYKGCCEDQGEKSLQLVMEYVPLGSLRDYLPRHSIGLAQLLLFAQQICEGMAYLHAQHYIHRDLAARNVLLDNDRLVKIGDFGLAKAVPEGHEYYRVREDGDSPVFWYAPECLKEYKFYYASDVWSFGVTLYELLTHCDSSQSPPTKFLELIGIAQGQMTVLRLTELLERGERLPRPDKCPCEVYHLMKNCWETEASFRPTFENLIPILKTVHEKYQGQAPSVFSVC

T1 sequence (P23458 852-1154): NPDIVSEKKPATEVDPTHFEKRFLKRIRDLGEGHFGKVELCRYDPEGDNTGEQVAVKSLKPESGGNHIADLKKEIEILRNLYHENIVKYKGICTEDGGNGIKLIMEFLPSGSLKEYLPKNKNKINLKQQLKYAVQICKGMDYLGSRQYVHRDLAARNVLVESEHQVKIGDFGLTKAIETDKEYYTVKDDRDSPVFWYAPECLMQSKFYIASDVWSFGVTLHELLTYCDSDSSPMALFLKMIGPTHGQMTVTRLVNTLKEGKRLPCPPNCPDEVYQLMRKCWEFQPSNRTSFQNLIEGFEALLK
T2 sequence (O60674 812-1132): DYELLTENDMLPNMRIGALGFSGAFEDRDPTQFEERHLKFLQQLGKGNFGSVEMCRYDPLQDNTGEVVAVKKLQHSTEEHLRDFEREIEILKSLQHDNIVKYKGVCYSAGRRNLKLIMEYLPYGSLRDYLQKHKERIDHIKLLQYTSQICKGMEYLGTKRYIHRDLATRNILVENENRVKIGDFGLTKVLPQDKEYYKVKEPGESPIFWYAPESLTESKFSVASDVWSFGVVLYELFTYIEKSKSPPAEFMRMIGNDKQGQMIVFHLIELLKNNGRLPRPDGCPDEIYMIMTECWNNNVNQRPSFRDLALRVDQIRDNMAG

SMILES	Ki [1] [nM]	Ki [2] [nM]	Ki [3] [nM]	Ki [4] [nM]
O=C(CN1CCC(n2cnc3cnc4[nH]ccc4c32)CC1)c1ccccc1 [Example 74]	1.25	2.98	31.9	14.2
NC1CCCC(n2cnc3cnc4[nH]ccc4c32)C1 (single isomer, unassigned) [Example 368, 3-(6H-1,3,5,6-Tetraaza-as-indacen-1-yl)-cyclohexylamine]	27.8	19.3	419	130
COCC(=O)NC1CCC(n2cnc3cnc4[nH]ccc4c32)CC1 (centres unmarked) [Example 887, 2-Methoxy-N-[4-(6H-1,3,5,6-tetraaza-as-indacen-1-yl)-cyclohexyl]-acetamide]	11.1	23.9	193	79
O=C(CC1CC1)N1CCC[C@@H](n2cnc3cnc4[nH]ccc4c32)C1 [Example 220, 2-Cyclopropyl-1-[(R)-3-(6H-1,3,5,6-tetraaza-as-indacen-1-yl)-piperidin-1-yl]-ethanone]	3.31	7.43	28.3	29.3
CS(=O)(=O)c1ccc(S(=O)(=O)N2CCC(n3cnc4cnc5[nH]ccc5c43)CC2)cc1 [Example 450, 1-(1-(4-(methylsulfonyl)phenylsulfonyl)piperidin-4-yl)-1,6-dihydroimidazo[4,5-d]pyrrolo[2,3-b]pyridine]	3.06	10.2	659	32.8
N#CC1CCN([C@H]2CC[C@H](n3c(CO)nc4cnc5[nH]ccc5c43)CC2)CC1 [Example 613, Trans 1-[4-(2-hydroxymethyl-6H-1,2,3,5,6-tetraaza-as-indacen-1-yl)-cyclohexyl]-piperidine-4-carbonitrile]	2.58	15.1	318	14.5
N#Cc1cccc(S(=O)(=O)N2CC[C@@H](n3cnc4cnc5[nH]ccc5c43)C2)c1 [Example 434, 3-[(R)-3-(6H-1,3,5,6-Tetraaza-as-indacen-1-yl)-pyrrolidine-1-sulfonyl]-benzonitrile]	5.67	6.22	1200	32.5
O=C(Cc1nc2cnc3[nH]ccc3c2n1C1CCN(Cc2ccccc2)CC1)N1CCC(F)(F)CC1 [Example 217, 2-[1-(1-Benzyl-piperidin-4-yl)-1,6-dihydro-1,3,5,6-tetraaza-as-indacen-2-yl)-1-(4,4-difluoro-piperidin-1-yl)-ethanone]	3.6	48.7	6.79	608
N#CCCN1CCC(n2c(COC3CCCC3)nc3cnc4[nH]ccc4c32)CC1 [Example 844, 3-[4-(2-Cyclopentyloxymethyl-6H-1,3,5,6-tetraaza-as-indacen-1-yl)-piperidin-1-yl]-propionitrile]	97.1	177	169	732
COCCN1CCC(n2cnc3cnc4[nH]ccc4c32)CC1 [Example 63, 1-[1-(2-Methoxy-ethyl)-piperidin-4-yl]-1,6-dihydro-1,3,5,6-tetraaza-as-indacene]	7.54	12	96.5	73.9
CN1CCC[C@H]1C(=O)N1CCC(n2nnc3cnc4[nH]ccc4c32)CC1 [Example 284, ((S)-1-Methyl-pyrrolidin-2-yl)-[4-(6H-1,2,3,5,6-pentaaza-as-indacen-1-yl)-piperidin-1-yl]-methanone]	92.5	604	2630	3430
c1cc(N2CCC(n3cnc4cnc5[nH]ccc5c43)CC2)ncn1 [Example 65, 1-(1-Pyrimidin-4-yl-piperidin-4-yl)-1,6-dihydro-1,3,5,6-tetraaza-as-indacene]	14.9	34.6	281	107

Continued, values first:

Ki [1] [nM]	Ki [2] [nM]	Ki [3] [nM]	Ki [4] [nM]	SMILES
37.1	115	34.4	125	CO[C@H](C)c1nc2cnc3[nH]ccc3c2n1C1CCCCC1 [Example 685, 1-Cyclohexyl-2-((R)-1-methoxy-ethyl)-1,6-dihydro-1,2,3,5,6-tetraaza-as-indacene]
1.19	3.31	12.1	6.08	Cc1nc2cnc3[nH]ccc3c2n1[C@H]1CC[C@H](CO)CC1 [Example 633, Trans[4-(2-methyl-6H-1,2,3,5,6-tetraaza-as-indacen-1-yl)-cyclohexyl]-methanol]
251	747	433	2340	Cc1nc2cnc3[nH]ccc3c2n1[C@H](C)CO [Example 421, (R)-2-(2-Methyl-6H-1,3,5,6-tetraaza-as-indacen-1-yl)-propan-1-ol]
135	201	625	715	CN(C)C(=O)CN1CCC[C@@H](n2cnc3cnc4[nH]ccc4c32)C1 [Example 60, N,N-Dimethyl-2-[(R)-3-(6H-1,3,5,6-tetraaza-as-indacen-1-yl)-piperidin-1-yl]acetamide]
17.8	12.4	158	182	CNC(=O)N(C)[C@H]1CC[C@H](n2c(C)nc3cnc4[nH]ccc4c32)CC1 [Example 608, Trans 1,3-dimethyl-1-[4-(2-methyl-6H-1,2,3,5,6-tetraaza-as-indacen-1-yl)-cyclohexyl]-urea]
221	876	1370	698	CCC(=O)N1CCC[C@@H](n2c([C@@H](C)O)nc3cnc4[nH]ccc4c32)C1 [Example 795, 1-{(R)-3-[2-((R)-1-Hydroxy-ethyl)-6H-1,3,5,6-tetraaza-as-indacen-1-yl]-piperidin-1-yl}-propan-1-one]
1.73	1.92	23.8	12.3	CC(C)(O)[C@H]1CC[C@H](n2cnc3cnc4[nH]ccc4c32)CC1 [Example 148, Trans 2-[4-(6H-1,2,3,5,6-Tetraaza-as-indacen-1-yl)-cyclohexyl]-propan-2-ol]
1.89	7.88	55.9	92.7	CC(C)CC(=O)N[C@H]1CC[C@H](n2cnc3cnc4[nH]ccc4c32)CC1 [Example 215, 3-Methyl-N-[4-(6H-1,2,3,5,6-tetraaza-as-indacen-1-yl)-cyclohexyl]-butyramide]
7.31	8.34	12.1	45.5	Cc1nc2cnc3[nH]ccc3c2n1[C@H]1CC[C@H](N2CCNC2=O)CC1 [Example 598, Trans 1-[4-(2-methyl-6H-1,2,3,5,6-tetraaza-as-indacen-1-yl)-cyclohexyl]-imidazolidin-2-one formic acid salt]
69.5	568	234	1500	FC(F)(F)c1nc2cnc3[nH]ccc3c2n1C1CCNCC1 [Example 254, 1-Piperidin-4-yl-2-trifluoromethyl-1,6-dihydro-1,3,5,6-tetraaza-as-indacene]
0.81	4.38	39	3.7	CS(=O)(=O)CC[C@H]1CC[C@H](n2c(CO)nc3cnc4[nH]ccc4c32)CC1 [Example 652, Trans {1-[4-(2-methanesulfonyl-ethyl)-cyclohexyl]-1,6-dihydro-1,2,3,5,6-tetraaza-as-indacen-2-yl}-methanol]

— US8461328B2, “Tricyclic heterocyclic compounds, compositions and methods of use thereof” (Genentech, Inc., priority 2010, dated 2013)
